Measurements reported in article PMC4823724 (Scientific Reports, 2016).

Tests used:
[1] = target: T1, XOC_4190ΔG
T1 construct: gene XOC_4190

[2] = target: T2, (UniProt G7TDB2); assay: biochemical
T2 construct: gene XOC_2102

[3] = target: T3, (UniProt G7TKC9); assay: biochemical
T3 construct: gene XOC_4190
T3 sequence (G7TKC9 1-656 limits assumed): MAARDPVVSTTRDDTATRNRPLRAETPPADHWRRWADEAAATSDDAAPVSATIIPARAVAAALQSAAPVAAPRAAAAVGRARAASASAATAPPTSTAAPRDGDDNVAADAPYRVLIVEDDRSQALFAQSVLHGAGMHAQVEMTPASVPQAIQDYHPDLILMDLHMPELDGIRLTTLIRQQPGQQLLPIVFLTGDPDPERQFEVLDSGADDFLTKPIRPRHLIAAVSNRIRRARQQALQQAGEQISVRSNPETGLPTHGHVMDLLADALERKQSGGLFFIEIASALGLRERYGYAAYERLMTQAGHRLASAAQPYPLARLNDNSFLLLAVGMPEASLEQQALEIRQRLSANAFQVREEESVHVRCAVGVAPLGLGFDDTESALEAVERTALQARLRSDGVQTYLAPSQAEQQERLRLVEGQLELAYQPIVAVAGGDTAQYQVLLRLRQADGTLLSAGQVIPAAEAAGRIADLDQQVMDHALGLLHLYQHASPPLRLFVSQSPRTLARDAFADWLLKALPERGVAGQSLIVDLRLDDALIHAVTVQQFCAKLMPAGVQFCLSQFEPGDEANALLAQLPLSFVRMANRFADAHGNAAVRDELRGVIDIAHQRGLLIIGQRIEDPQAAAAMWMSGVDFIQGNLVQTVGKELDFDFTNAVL

T2 sequence (G7TDB2 1-689): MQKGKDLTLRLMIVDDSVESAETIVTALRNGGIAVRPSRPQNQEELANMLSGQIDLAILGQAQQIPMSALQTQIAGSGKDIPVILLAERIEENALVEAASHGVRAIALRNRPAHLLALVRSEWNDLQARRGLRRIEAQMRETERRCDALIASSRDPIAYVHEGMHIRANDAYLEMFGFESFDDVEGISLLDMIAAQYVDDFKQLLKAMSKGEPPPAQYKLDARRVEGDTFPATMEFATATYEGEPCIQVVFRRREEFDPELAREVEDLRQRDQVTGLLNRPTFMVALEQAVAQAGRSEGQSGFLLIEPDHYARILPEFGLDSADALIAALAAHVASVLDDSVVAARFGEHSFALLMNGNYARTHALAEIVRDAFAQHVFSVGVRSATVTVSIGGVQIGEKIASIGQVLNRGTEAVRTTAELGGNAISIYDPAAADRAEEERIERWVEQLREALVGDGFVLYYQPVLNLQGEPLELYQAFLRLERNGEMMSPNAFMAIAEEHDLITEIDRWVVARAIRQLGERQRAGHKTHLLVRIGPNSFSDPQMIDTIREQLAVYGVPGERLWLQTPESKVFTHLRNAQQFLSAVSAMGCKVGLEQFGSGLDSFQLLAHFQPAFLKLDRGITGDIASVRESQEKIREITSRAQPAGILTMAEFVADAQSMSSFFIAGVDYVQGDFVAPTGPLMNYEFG

Work on Nc1nc2c(ncn2[C@@H]2O[C@@H]3COP(=O)(O)O[C@H]4[C@@H](O)[C@H](n5cnc6c(=O)[nH]c(N)nc65)O[C@@H]4COP(=O)(O)O[C@H]3[C@H]2O)c(=O)[nH]1 [c-di-GMP] yielded a Kd [1] of 4.46 ± 0.28 µM, a Kd [2] of 2900 ± 130 nM and a Kd [3] of 4.59 ± 0.36 µM.
